Earlier results on three compounds are cited in US20080200520A1, “Iron Modulators” (BTG INTERNATIONAL LIMITED, priority 2005, published 2008).

Data set [1] has as its system mice. To be noted: oral treatment.
The conditions of data set [2]: comparative compounds, commercial lots.
For data set [3] the following is noted: comparative compounds, commercial lots. This is another data set of the same source.
The conditions of data set [4]: comparative compounds, commercial lots; solvent in which soluble.

Structures are written as SMILES. Counter-ions that a name gives are not always drawn.

In the case of `Oc1c(I)cc(Cl)c2cccnc12` [Clioquinol], the “protection from the effects of MPTP” value in data set [1] is given as “protect mice from the effects of MPTP”. Also, the Stability result in data set [2] is “stable”. In data set [3], the “Potential Hazards” value is “harmful. Sensitisation by inhalation and skin contact. Causes severe irritation. Readily absorbed through skin. Target organs: eyes and nerves”. In addition, in data set [4], the Solubility entry is “DMSO”.
For `Cc1c(O)c(=O)ccn1C` [Deferiprone], the Stability entry in data set [2] was “stable”. Besides, the Solubility entry in data set [4] is “water”.
On to `CC(=O)N(O)CCCCCNC(=O)CCC(=O)N(O)CCCCCNC(=O)CCC(=O)N(O)CCCCCN` [Desferrioxamine Mesylate], for which the Stability entry in data set [2] was “stable”. Further, the “Potential Hazards” value in data set [3] is on record as “none”. Further, the Solubility result in data set [4] is listed as “water”.
